# Results: US7300784B2 (priority 2001, dated 2007)
# Several values for one entry are separate records, joined by “and”; a condition that tells them apart may be missing. Equal entries are not always repeated. Where two headings read alike, the source gives them in different places.
# Legend:
# [1] = tested on: nitrile hydratase of Rhodococcus sp. Cr4; format: biochemical
# [2] = tested on: Rhodococcus sp. Cr4; format: cell-based
# [3] = tested on: Rhodococcus rhodochrous ATCC 332878; format: cell-based
# Chain of nitrile hydratase of Rhodococcus sp. Cr4 (as listed by the source): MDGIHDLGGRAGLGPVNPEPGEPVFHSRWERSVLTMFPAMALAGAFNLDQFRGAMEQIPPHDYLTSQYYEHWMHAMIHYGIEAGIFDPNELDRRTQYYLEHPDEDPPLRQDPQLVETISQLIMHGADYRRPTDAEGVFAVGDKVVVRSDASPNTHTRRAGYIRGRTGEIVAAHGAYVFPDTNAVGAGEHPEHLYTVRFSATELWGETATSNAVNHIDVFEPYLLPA
# Chain of nitrile hydratase of Rhodococcus sp. Cr4 (as listed by the source): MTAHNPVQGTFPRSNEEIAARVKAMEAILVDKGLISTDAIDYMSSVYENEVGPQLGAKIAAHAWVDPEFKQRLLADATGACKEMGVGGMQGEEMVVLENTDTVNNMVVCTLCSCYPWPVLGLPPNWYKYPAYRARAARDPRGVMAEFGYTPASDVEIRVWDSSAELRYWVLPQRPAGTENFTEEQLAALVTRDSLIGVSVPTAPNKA
substance,measurement,setting,value
CoCl2,Relative activity (%),[1],154%
same,effect on enzyme activity (words),[1],enhanced
same,enhancement of the enzymatic activity,[1],1.5 times
same,Relative activity (%),[1]; 0 mM = 100,136% and 127% and 129% and 150% and 153% and 143%
same,Relative activity (%),[2],137%
same,effect on nitrile hydratase activity in resting cell reaction,[2],enhanced
same,Relative activity (%),[3],123%
